From patent publication US12441695B2, “Substituted thiadiazinone dioxide and preparation method therefor, herbicidal composition, and application therefor” (Qingdao Kingagroot Chemical Compound Co., Ltd., priority 2019, dated 2025)

Columns and labels:
[1] = tested on: major crops (wheat, corn, rice, soybean, cotton, oilseed rape, millet, sorghum); assay: Experiment on weeding effect in post-emergence stage (crops); assay type: in vivo; conditions: 600 g/ha active ingredient plus water 450 kg/ha, 3 weeks after application; for corn plant damage level (growth control rate): crop corn; for rice plant damage level (growth control rate): crop rice; for soybean plant damage level (growth control rate): crop soybean
Protocol: (§1) The above growth control rates are fresh weight control rates.
(§2) (1) Experiment on weeding effect in post-emergence stage: monocotyledonous and dicotyledonous weed seeds and major crop seeds (wheat, corn, rice, soybean, cotton, oilseed rape, millet, sorghum) were placed in plastic pots filled with soil, then covered with 0.5-2 cm of soil, allowed to grow in a good greenhouse environment. After 2-3 weeks of sowing, the test plants were treated. The tested compounds of the present invention were respectively dissolved in acetone, then added with Tween 80, diluted with a certain amount of water to obtain a solution with a certain concentration, and sprayed with a spray tower onto the plants.

[2] = tested on: monocotyledonous and dicotyledonous weeds; assay: Experiment on weeding effect in post-emergence stage (weeds); assay type: in vivo; conditions: 600 g/ha active ingredient plus water 450 kg/ha, 3 weeks after application, fresh weight control rate; for Amaranthus retroflexus activity level (growth control rate): fomesafen-resistant Amaranthus retroflexus
Source text: The activity level criteria for plant damage (i.e., growth control rate) are as follows: • Level 5: growth control rate is above 85%; • Level 4: growth control rate is greater than or equal to 60% and less than 85%; • Level 3: growth control rate is greater than or equal to 40% and less than 60%; • Level 2: growth control rate is greater than or equal to 20% and less than 40%; • Level 1: growth control rate is greater than or equal to […]; • Level 0: growth control rate is less than 5%.
as §1
as §2, with “plants. After the application, the plants were cultured for 3 weeks in the greenhouse, and then the experimental results of the weeding were listed in Table 2.” for “plants.”

| Compound | corn plant damage level (growth control rate) [1] | rice plant damage level (growth control rate) [1] | soybean plant damage level (growth control rate) [1] | Amaranthus retroflexus activity level (growth control rate) [2] | Digitaria sanguinalis activity level (growth control rate) [2] | Echinochloa crus-galli activity level (growth control rate) [2] | Setaria viridis activity level (growth control rate) [2] |
| --- | --- | --- | --- | --- | --- | --- | --- |
| CC(=O)N1c2c(Cl)cc(F)cc2C(=O)N(C(C)C)S1(=O)=O [Compound 152] | 0 (Level 0: growth control rate is less than 5%) | 0 (Level 0: growth control rate is less than 5%) | 1 (Level 1: growth control rate is greater than or equal to 500 and less than 200%) | 5 (Level 5: growth control rate is above 85%) | 5 (Level 5: growth control rate is above 85%) | 5 (Level 5: growth control rate is above 85%) | 5 (Level 5: growth control rate is above 85%) |
| CCOC(=O)OC(C)N1c2c(Cl)cc(F)cc2C(=O)N(C(C)C)S1(=O)=O (centres unmarked) [Compound 153] | 0 (Level 0: growth control rate is less than 5%) | 0 (Level 0: growth control rate is less than 5%) | 1 (Level 1: growth control rate is greater than or equal to 500 and less than 200%) | 5 (Level 5: growth control rate is above 85%) | 5 (Level 5: growth control rate is above 85%) | 5 (Level 5: growth control rate is above 85%) | 5 (Level 5: growth control rate is above 85%) |
| CC(=O)N1c2c(Br)cc(F)cc2C(=O)N(C(C)C)S1(=O)=O [Compound 154] | 0 (Level 0: growth control rate is less than 5%) | 0 (Level 0: growth control rate is less than 5%) | 1 (Level 1: growth control rate is greater than or equal to 500 and less than 200%) | 5 (Level 5: growth control rate is above 85%) | 5 (Level 5: growth control rate is above 85%) | 5 (Level 5: growth control rate is above 85%) | 5 (Level 5: growth control rate is above 85%) |
| CCOC(=O)OC(C)N1c2c(Br)cc(F)cc2C(=O)N(C(C)C)S1(=O)=O (centres unmarked) [Compound 155] | 0 (Level 0: growth control rate is less than 5%) | 0 (Level 0: growth control rate is less than 5%) | 1 (Level 1: growth control rate is greater than or equal to 500 and less than 200%) | 5 (Level 5: growth control rate is above 85%) | 5 (Level 5: growth control rate is above 85%) | 5 (Level 5: growth control rate is above 85%) | 5 (Level 5: growth control rate is above 85%) |
| CCN1C(=O)c2cc(F)ccc2NS1(=O)=O [Compound 157] | 0 (Level 0: growth control rate is less than 5%) | 0 (Level 0: growth control rate is less than 5%) | 0 (Level 0: growth control rate is less than 5%) | 3 (Level 3: growth control rate is greater than or equal to 40% and less than 60%) |  |  |  |
| CCC(C)N1C(=O)c2cc(F)ccc2NS1(=O)=O (centres unmarked) [Compound 161] | 0 (Level 0: growth control rate is less than 5%) | 1 (Level 1: growth control rate is greater than or equal to 500 and less than 200%) | 0 (Level 0: growth control rate is less than 5%) |  |  |  | 3 (Level 3: growth control rate is greater than or equal to 40% and less than 60%) |
| CCCC(C)N1C(=O)c2cc(F)ccc2NS1(=O)=O (centres unmarked) [Compound 163] |  | 0 (Level 0: growth control rate is less than 5%) |  | 3 (Level 3: growth control rate is greater than or equal to 40% and less than 60%) |  |  |  |
| CCN1c2ccc(F)cc2C(=O)N(C(C)C)S1(=O)=O [Compound 176] | 0 (Level 0: growth control rate is less than 5%) | 0 (Level 0: growth control rate is less than 5%) | 0 (Level 0: growth control rate is less than 5%) | 5 (Level 5: growth control rate is above 85%) |  |  |  |
| CCC(=O)N1c2ccc(F)cc2C(=O)N(C(C)C)S1(=O)=O [Compound 179] | 0 (Level 0: growth control rate is less than 5%) | 1 (Level 1: growth control rate is greater than or equal to 500 and less than 200%) | 1 (Level 1: growth control rate is greater than or equal to 500 and less than 200%) | 5 (Level 5: growth control rate is above 85%) |  | 5 (Level 5: growth control rate is above 85%) | 3 (Level 3: growth control rate is greater than or equal to 40% and less than 60%) |
| CCCCC(=O)N1c2ccc(F)cc2C(=O)N(C(C)C)S1(=O)=O [Compound 181] | 0 (Level 0: growth control rate is less than 5%) | 0 (Level 0: growth control rate is less than 5%) | 0 (Level 0: growth control rate is less than 5%) | 5 (Level 5: growth control rate is above 85%) |  |  |  |
| CC(C)N1C(=O)c2cc(F)ccc2N(C(=O)C(C)(C)C)S1(=O)=O [Compound 182] | 0 (Level 0: growth control rate is less than 5%) | 0 (Level 0: growth control rate is less than 5%) | 0 (Level 0: growth control rate is less than 5%) | 3 (Level 3: growth control rate is greater than or equal to 40% and less than 60%) |  |  |  |
| C=CC(=O)N1c2ccc(F)cc2C(=O)N(C(C)C)S1(=O)=O [Compound 183] | 0 (Level 0: growth control rate is less than 5%) | 0 (Level 0: growth control rate is less than 5%) | 0 (Level 0: growth control rate is less than 5%) | 3 (Level 3: growth control rate is greater than or equal to 40% and less than 60%) |  |  |  |
| CC(C)N1C(=O)c2cc(F)ccc2N(C(=O)C2CC2)S1(=O)=O [Compound 184] | 1 (Level 1: growth control rate is greater than or equal to 500 and less than 200%) |  |  | 5 (Level 5: growth control rate is above 85%) | 3 (Level 3: growth control rate is greater than or equal to 40% and less than 60%) |  | 3 (Level 3: growth control rate is greater than or equal to 40% and less than 60%) |
| COCC(=O)N1c2ccc(F)cc2C(=O)N(C(C)C)S1(=O)=O [Compound 185] | 0 (Level 0: growth control rate is less than 5%) | 0 (Level 0: growth control rate is less than 5%) | 0 (Level 0: growth control rate is less than 5%) | 3 (Level 3: growth control rate is greater than or equal to 40% and less than 60%) |  |  |  |
| CCCOC(=O)N1c2ccc(F)cc2C(=O)N(C(C)C)S1(=O)=O [Compound 186] | 0 (Level 0: growth control rate is less than 5%) | 0 (Level 0: growth control rate is less than 5%) | 0 (Level 0: growth control rate is less than 5%) | 4 (Level 4: growth control rate is greater than or equal to 60% and less than 85%) |  |  |  |
| CCCCCCCCSC(=O)N1c2ccc(F)cc2C(=O)N(C(C)C)S1(=O)=O [Compound 189] | 0 (Level 0: growth control rate is less than 5%) | 0 (Level 0: growth control rate is less than 5%) | 0 (Level 0: growth control rate is less than 5%) | 4 (Level 4: growth control rate is greater than or equal to 60% and less than 85%) |  |  |  |
| CC(C)N1C(=O)c2cc(F)ccc2N(C(=O)N(C)C)S1(=O)=O [Compound 190] | 0 (Level 0: growth control rate is less than 5%) | 0 (Level 0: growth control rate is less than 5%) | 0 (Level 0: growth control rate is less than 5%) | 3 (Level 3: growth control rate is greater than or equal to 40% and less than 60%) |  |  |  |
